Data on 5 compounds can be found in patent US12649754B2, “Prodrugs of 2-(3,5-dichloro-1-methyl-indazol-4-yl)-1-[(1S,3R)-3-(hydroxymethyl)-5-(1-hydroxy-1-methyl-ethyl)-1-methyl-3,4-dihydro-1H-isoquinolin-2-yl]ethanone” (UCB Biopharma SRL, priority 2020, dated 2026).

Each structure is given as a SMILES string. Values after ≈ are worked out from the molar mass of the structure shown. Read-outs that look alike come from different tables or passages of the source.

Data set [1] can be described thus: Solubility by shake flask method (24 h, HPLC). The format is physicochemical. The note with it: n=3 mean; for solubility at 24 h: thermodynamic from solid, read-out: Solubility Measurements (mean value) (24 h). On the procedure: The solubility of compounds of formula (Ia) obtained according to Example 2.12. and compounds of formula (II-A), (II-Ax) and (II-B) obtained respectively according to Examples 3.2. and 4.2., was determined in different media while using the shake flask method. An excess of solids, for (II-Ax) and (II-B) equivalent to a concentration of compound of formula (I) of 5 mg/mL, and for (II-A) equivalent to a concentration of compound of formula (I) of 1 mg/mL was suspended in 5 mL of buffer/biorelevant media as specifically described in Table 1 and incubated in a sealed glass vial (10 mL) for 24 h at room temperature or 37° C. (as indicated below) in a climatic chamber equipped with a rotary mixer. The 24 h time point was assumed to have reached solubility, at which time the suspension was filtered through a 0.45-μm ultra free filter (Merck Millipore) and the drug content was determined by HPLC. The solubility of compounds (Ia), (II-A), (II-Ax) and (II-B) was determined in triplicate (n=3) and mean value calculated.
The media tested are respectively water, phosphate buffer, FasSGF, FASSIF-V2 and FeSSIF-V2. FasSG is fasted condition gastric fluid. FasSGF is prepared at pH 1.6 and contains 0.08 mM Taurocholate, 0.02 mM phospholipids, 34 mM sodium and 59 mM chloride. FaSSIF-V2 and FeSSIF-V2 are Fasted and Fed State Biorelevant Media, respectively. FaSSIF-V2 is prepared at pH 6.5 and contains 3 mM Taurocholate, 0.2 mM Phospholipids, 106 mM Sodium, 69 mM Chloride and 19 mM Maleic acid. FeSSIF-V2 is prepared at pH 5.8 and contains 10 mM Taurocholate, 2 mM Phospholipids, 0.8 mM Oleate, 5 mM Glycerol monoleate, 218 mM Sodium, 125 mM Chloride and 55 mM Maleic acid.

The nature of data set [2]: In vivo bioavailability of oral suspensions of prodrugs, plasma LC/MS. The conditions noted are these: male Sprague-Dawley rats, single oral dose of suspension corresponding to 3 mg/kg of compound (I), plasma 0.12 h to 8 h. As for the experimental part: The formulation vehicle used in the following suspension is a mixture of 1% (w/v) methylcellulose (400 cps), 0.1% (weight/volume) TWEEN® 80, 0.1% (w/v) Antifoam 1510 US in 25 mM phosphate buffer pH 3.0 in water. […]
The solution is homogenized by sonication during 1 minute, repeated 3 times.
Three male Sprague-Dawley rats were administered the respective suspensions of (II-A), (II-B) and (II-C), as described in paragraph 7.1 above, at a single oral dose corresponding to 3 mg/kg of compound of formula (I).
Plasma samples were collected 0.12 h, 0.25 h, 0.5 h, 1 h, 2 h, 4 h and 8 h following dosing.
Plasma concentrations of compound (I) and respective compounds (II-A), (II-B) and (II-C) were quantified by LC/MS (liquid chromatography/mass spectrometry).

The mark [3] stands for this setting: phosphate buffer, pH 4, aqueous buffer, Phosphate buffer (50 mM), pH 4.0, RT.
Setting [4] is: water, pH 7, water, Water, pH 7.0, RT.
Where [5] appears, read: phosphate buffer, pH 6.5, aqueous buffer, Phosphate buffer (50 mM), pH 6.5, RT.
Setting [6] is: FaSSIF-V2, 37 °C, pH 6.5, fassif, FaSSIF-V2, pH 6.5, 37° C.
[7] abbreviates: FasSGF, 37 °C, pH 1.6, fassgf or other biorelevant, FasSGF, pH 1.6, 37° C.
The mark [8] stands for this setting: FeSSIF-V2, 37 °C, pH 5.8, fessif, FeSSIF-V2, pH 5.8, 37° C.

Regarding `C[C@H]1c2cccc(C(C)(C)O)c2C[C@H](COP(=O)(O)O)N1C(=O)Cc1c(Cl)ccc2c1c(Cl)nn2C` [(II-A), [(1S,3R)-2-[2-(3,5-dichloro-1-methyl-indazol-4-yl)acetyl]-5-(1-hydroxy-1-methyl-ethyl)-1-methyl-3,4-dihydro-1H-isoquinolin-3-yl]methyl dihydrogen phosphate], in data set [1] (FaSSIF-V2, pH 6.5, 37° C.), the “Solubility Measurements (mean value) (24 h)” value is ~1.1 mg/mL. Besides, the solubility at 24 h in data set [1] (setting [3]) and in data set [1] (setting [4]) was ~1 mg/mL each time. Besides, in data set [2], the “cleavage of prodrug into compound of formula (I) in plasma” value (from here on “cleavage”) is reported as “completely cleaved”.
As for `C[C@H]1c2cccc(C(C)(C)O)c2C[C@H](COP(=O)(O)O)N1C(=O)Cc1c(Cl)ccc2c1c(Cl)nn2C` [(II-Ax), [(1S,3R)-2-[2-(3,5-dichloro-1-methyl-indazol-4-yl)acetyl]-5-(1-hydroxy-1-methyl-ethyl)-1-methyl-3,4-dihydro-1H-isoquinolin-3-yl]methyl dihydrogen phosphate], the “Solubility Measurements (mean value) (24 h)” value was >5 mg/mL in data set [1] (FaSSIF-V2, pH 6.5, 37° C.) and >5 mg/mL in data set [1] (FeSSIF-V2, pH 5.8, 37° C.). Further, the solubility at 24 h in data set [1] (setting [5]) was > 5 mg/mL.
With `C[C@H]1c2cccc(C(C)(C)O)c2C[C@H](CO)N1C(=O)Cc1c(Cl)ccc2c1c(Cl)nn2C` [(Ia), 2-(3,5-dichloro-1-methyl-indazol-4-yl)-1-[(1S,3R)-3-(hydroxymethyl)-5-(1-hydroxy-1-methyl-ethyl)-1-methyl-3,4-dihydro-1H-isoquinolin-2-yl]ethanone], the solubility at 24 h was ~0.0015 mg/mL (≈ 3.15 µM) in data set [1] (setting [6]); < 0.001 mg/mL in data set [1] (setting [7]); ~0.004 mg/mL (≈ 8.4 µM) in data set [1] (setting [8]); < 0.001 mg/mL in data set [1] (setting [3]); < 0.001 mg/mL in data set [1] (setting [5]); < 0.001 mg/mL in data set [1] (setting [4]).
As to `CC(C)[C@H](N)C(=O)OC[C@H]1Cc2c(cccc2C(C)(C)O)[C@H](C)N1C(=O)Cc1c(Cl)ccc2c1c(Cl)nn2C` [(II-B), [(1S,3R)-2-[2-(3,5-dichloro-1-methyl-indazol-4-yl)acetyl]-5-(1-hydroxy-1-methyl-ethyl)-1-methyl-3,4-dihydro-1H-isoquinolin-3-yl]methyl (2S)-2-amino-3-methyl-butanoate], the solubility at 24 h is ~0.03 mg/mL (≈ 52.1 µM) in data set [1] (setting [6]); ~4.8 mg/mL (≈ 8340 µM) in data set [1] (setting [7]); ~0.9 mg/mL (≈ 1560 µM) in data set [1] (setting [8]); ~0.85 mg/mL (≈ 1480 µM) in data set [1] (setting [3]); ~0.07 mg/mL (≈ 122 µM) in data set [1] (setting [5]); ~0.04 mg/mL (≈ 69.5 µM) in data set [1] (setting [4]). The “cleavage” value in data set [2] was “partially cleaved”.
Turning to `CC(C)C[C@H](N)C(=O)OC[C@H]1Cc2c(cccc2C(C)(C)O)[C@H](C)N1C(=O)Cc1c(Cl)ccc2c1c(Cl)nn2C` [(II-C), [(1S,3R)-2-[2-(3,5-dichloro-1-methyl-indazol-4-yl)acetyl]-5-(1-hydroxy-1-methyl-ethyl)-1-methyl-3,4-dihydro-1H-isoquinolin-3-yl]methyl (2S)-2-amino-4-methyl-pentanoate], the “cleavage” value in data set [2] was “completely cleaved”.

Usually solubility stands for the dissolved amount per volume that the medium holds.
